Assays:
H520 cells [1] = assay: H520 lung squamous cell carcinoma xenograft, first experiment; type: in vivo, nude-BALB/c mice
Experimental: (§1) Male nude-BALB/c mice at six-weeks of age were obtained from National Laboratory Animal Breeding and Research Center, Taipei, Taiwan. Mice were housed in each cage and provided them with sterile food and water. The mice were maintained under a constant temperature (22±2° C.) and relative humidity (55±5%), with a 12:12 h light: dark cycle. The Institutional Animal Care and Use Committee (IACUC) at the National […] University (IACUC Approval No. 110003) reviewed and approved the study protocol, in which procedures were in accordance with the Guidelines for the Care and Use of Laboratory Animals published by the Taiwanese Ministry of Health and Welfare. Human non-small cell lung carcinoma cell line (H520) was purchased from ATCC Cell Bank. H520 cells were incubated in RPMI 1640 medium (cat no. 61870044; Gibco; Thermo Fisher, Inc) supplemented with 10% fetal bovine serum in an environmental containing 5% CO2 at 37° C. The experimental treatments were commenced after the implanted H520 cells had formed a detectable tumor mass, which was assessed on day 7 after implantation. […] The growth of the tumors was assessed every seven days by measuring their largest and smallest diameters, and calculated their volume according to the following formula: […] […]

H520 cells [2] = assay: H520 lung squamous cell carcinoma xenograft, repeat experiment; type: in vivo, nude-BALB/c mice; settings: compared to control, FIGS. 13A, 13B
Experimental: as §1

ZEB1 = assay: Quantitative PCR of ZEB1 mRNA in M5 tumors; type: in vivo, BALB/c nude mice; settings: FIG. 10
Ki67 = assay: IHC analysis of Ki67 in M5 tumors; type: in vivo, BALB/c nude mice; settings: FIGS. 9A and 9B
A549 cells = assay: A549 lung adenocarcinoma xenograft; type: in vivo, BALB/c nude mice
Experimental: A549 cell line was purchased from ATCC Cell Bank and was cultured in F-12K medium (cat no. ATCC 30-2004) plus 10% fetal bovine serum, at 37° C., 5% CO2. For experiments, cells were grown to 90% confluence. The experimental treatments were commenced after the implanted A549 cells had formed a detectable tumor mass, which was assessed on day 7 after implantation. Briefly, the mice were anesthetized via intraperitoneal injection of Zoletil (Virbac Taiwan, Taipei, Taiwan), and then subcutaneously injected 100 μl of cell suspension containing 6*10^6 viable A549 cells into right posterior leg. […] All treatments were administered via intraperitoneal injection (IP) or intratumoral injection (IT). The control group (Group 1) received normal saline daily, while the other three treatment groups received their corresponding treatments B.I.W (twice a week) or Q.W (once weekly). The PTS100 group (Group 2) received 330 mg/kg of PTS100 (Gongwin Biopharm Holding, Taipei, Taiwan). The normal saline+pemetrexed+Cisplatin group (Group 3) received 100 mg/kg of pemetrexed and 2 mg/kg of cisplatin. The pemetrexed+cisplatin+PTS100 (Group 4, also known as the “combination”) received 100 mg/kg of pemetrexed, 2 mg/kg of cisplatin, and 330 mg/kg of PTS 100. In group 4, when administering in combination, pemetrexed, cisplatin, PTS100 are given at different days, for example, PTS is given at Monday and Thursday, and pemetrexed+cisplatin is given at Wednesday. See Table 4 for the experimental design of the corresponding treatments, dose, injection site, concentration, volume, number of subjects and dosing frequency. The dosage of pemetrexed, cisplatin, and PTS100 were selected such that these drug affects apoptosis, invasion, metastasis, angiogenesis, and the growth signal mechanisms in […] implanted in mice. The growth of the tumors was assessed every seven days by measuring their largest and smallest diameters, and calculated their volume according to the following formula: […] [table]

## Cc1ccc(S(N)(=O)=O)cc1 [PTS, p-Toluenesulfonamide]
H520 cells [1]; PTS100 330 mg/kg IT B.I.W., gemcitabine 160 mg/kg and cisplatin 3 mg/kg IP QW
  tumor growth inhibition: 39.2%
H520 cells [1]; compared to control, FIG. 12A
  tumor volume / tumor burden: slight decrease
H520 cells [2]
  tumor volume / tumor burden: slight decrease
ZEB1
  ZEB1 mRNA expression: downregulation
Ki67
  Ki67 expression: suppressed
A549 cells; PTS100 330 mg/kg IT B.I.W., pemetrexed 100 mg/kg and cisplatin 2 mg/kg IP QW
  Inhibition (%) (tumor growth inhibition): 84.13%
A549 cells; compared to control, FIG. 14A
  tumor volume / tumor burden: slight decrease
A549 cells; compared to the control, FIG. 14B
  tumor weight: significant decrease
